Values of other authors as cited in patent US4127526A, “Novel tetradecapeptides, intermediates therefor, and compositions and methods employing said tetradecapeptides” (priority 1977, dated 1978).

Tests used:
[1] = injected directly into the brain of the rat
[2] = system: brain opiate receptor sites

H-Tyr-Gly-Gly-Phe-Met-OH [methionine enkephalin]
analgesic activity [1]: weak analgesic agent of short duration
binding to partially purified brain opiate receptor sites [2]: binds stereo-specifically
activity in bioassays for opiate activity (opiate activity): very active
